Results on 15 molecules are retold here after PubChem BioAssay (NCI).

Common to all, as to assay: NCI tumour cell line growth inhibition, 48 h
Assay [1] deals with LOX IMVI melanoma.
Assay [2] relates to SNB-19 CNS.
Assay [3] deals with COLO 205 colon.
The test system of assay [4] is HT29 colon.
Assay [5] deals with SK-MEL-28 melanoma.
Assay [6] deals with IGROV1 ovarian.
Assay [7] deals with SF-268 CNS.
Assay [8] relates to HOP-92 NSCLC.
In assay [9] the test system is M14 melanoma.
The subject of assay [10] is PC-3 prostate.

SMILES strings stand for the structures.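 How tested: cells in 96-well plates exposed to compound for 48 hours at five concentrations. Abbreviation: GI50, concentration required for 50% inhibition of growth. At the TGI there is no net growth.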

Turning to `CC(=O)O[C@@H]1CC(C)C2CC2C2=C(C(O)OC2O)[C@@H]1C(C)CCC=C(C)C` (stereo partly specified), the TGI was 40.9 µM in assay [1]; 99.5 µM in assay [2]; 32.5 µM in [3]; 35.5 µM in assay [4]; above 100 µM in assay [5]; 51.1 µM in assay [6]. Further, the TGI in [7] is 65.5 µM; in assay [8], 35.5 µM; in [9] it was above 100 µM.
`COc1cc2c(cc1OC)[C@@H](C(O)c1ccccc1)NCC2` (stereo partly specified): the TGI in assay [1], in assay [2], in assay [3], in assay [4], in assay [6] and in assay [7] was above 100 µM throughout. Further, the TGI in [8] and in [9] was above 100 µM in each case.
`Cc1cccc(C)c1NC(=O)C(=O)CC(=O)CO`: the TGI in assay [1], in assay [2], in [3], in [4], in assay [5] and in assay [6] was above 100 µM throughout. The TGI in [7], in assay [8] and in [9] was above 100 µM each time.
As for `CN(C)c1ccc(/C=C2\N=C(c3ccc(N)cc3)OC2=O)cc1`, the TGI in assay [1], in assay [2], in assay [3], in [4], in assay [5] and in [6] was above 100 µM in each case. The TGI in [7], in [8] and in [9] was above 100 µM throughout.
On to `N#CC1(c2nc3ccccc3o2)C(=O)C(=O)N(c2ccc(Cl)c(Cl)c2)C(=O)C1=O`, for which the TGI in assay [1], in assay [2], in [3], in [4], in assay [5] and in assay [7] was above 100 µM throughout. Moreover, the TGI in [8] and in assay [9] was above 100 µM each time.
For the molecule `Cc1ccc(C2=Nc3ccccc3NC(=O)C2)cc1`, the TGI in [1], in [2], in assay [3], in assay [4], in assay [5] and in [6] was above 100 µM each time. Besides, the TGI in assay [7], in [8] and in [9] was above 100 µM each time.
As for `CCC(C)/C=C(C)/C=C/C(=O)c1c(O)c(-c2ccc(O)cc2)c[nH]c1=O` (stereo unspecified), the GI50 in [1] is 3.49 µM; in [2], 5.43 µM; in assay [10], 3.33 µM; in assay [3], 7.2 µM; in assay [4] it was 3.77 µM; in [6], 2.59 µM. The results for the GI50 in assay [7] and in assay [9] were 3.19 µM and 6.58 µM, respectively. For the same molecule, the TGI in assay [1] turned out to be 13.2 µM; in assay [2], 19.8 µM; in assay [10], 14.4 µM; in assay [3], 19.5 µM; in assay [4] it was 14.6 µM; in assay [6], 15 µM. In addition, the results for the TGI in assay [7] and in assay [9] were 14 µM and 19.7 µM, respectively.
Consider `CC(=S)NNC(=O)c1ccncc1`, for which the TGI in [1], in assay [2], in assay [3], in [4], in assay [5] and in assay [6] was above 100 µM each time. For the same molecule, the TGI in assay [7], in assay [8] and in assay [9] was above 100 µM each time.
Regarding `CC(C)(C)C(=O)C(c1ccc(-c2cscn2)cc1)c1ccc(-c2cscn2)cc1`, the TGI in assay [1] was above 100 µM; in [2], above 69.7 µM; in assay [3], above 100 µM; in assay [4], above 100 µM; in assay [5], above 100 µM; in assay [6] it was above 100 µM. Also, the results for the TGI in [7], in [8] and in [9] were 97.5 µM, 30 µM and above 100 µM, respectively.
Turning to `COC1CC(OS(=O)(=O)c2ccc(C)cc2)C(OS(=O)(=O)c2ccc(C)cc2)C(COS(=O)(=O)c2ccc(C)cc2)O1` (stereo unspecified), the TGI in assay [2] was 5.58 µM; in [3], above 100 µM; in [4] it was 15.1 µM; in assay [5], 13.4 µM; in [6], 17.2 µM; in [7], 3.02 µM. The TGI in [9] was found to be 17.8 µM.
Take `O=Cc1[nH]c2ccccc2c1Br`: the TGI in [1] was found to be 75.7 µM; in [2] it was 67.2 µM; in [3], 34.7 µM; in [4] it was 58.6 µM; in assay [5] it was 59.4 µM; in assay [6], 70.2 µM. Further, the figures for the TGI in assay [7], in assay [8] and in assay [9] were 69.8 µM, 66.8 µM and 46.3 µM, respectively.
Consider `Cc1cc2c(c(C#N)c1C)NC(=O)C(CC(=O)O)C2=O` (stereo unspecified), for which the TGI in assay [1], in [3], in [4], in [5], in assay [6] and in assay [7] was above 100 µM throughout. The TGI in [8] and in assay [9] was above 100 µM each time.
Take `NC1CCC[C@@H](O)[C@H]1O` (stereo partly specified): the TGI in assay [1], in [2], in [10], in assay [3], in assay [4] and in assay [5] was above 100 µM throughout. Besides, the TGI in assay [6], in assay [7] and in assay [9] was above 100 µM in each case.
`O=C(Nc1nccs1)c1cc(C2=CC=CC([N+](=O)[O-])C=C2)nc(=S)[nH]1` (stereo unspecified): the TGI in [1], in assay [2], in assay [3], in [4], in assay [5] and in assay [6] was above 100 µM throughout. The TGI in [7], in [8] and in [9] was above 100 µM in each case.
Take `CN(C)CCCn1c2c3ccccc3ccc2c2oc(=O)c3ccccc3c21`: the TGI came to 13.3 µM in assay [1]; 29.2 µM in assay [2]; 5.87 µM in [3]; 14.7 µM in assay [4]; 12.3 µM in assay [5]; 23.5 µM in assay [6]. In addition, the values for the TGI in assay [7] and in assay [8] were 13.4 µM and 45.7 µM, respectively.
